The conditions of series [1]: nicotine after extraction (Example 1); clinical studies.
For series [2], the system named is models of Parkinson's disease. Conditions: intermittent nicotine treatment; cited from earlier work.
Another series has as its system migraine. Conditions: tryptophan administered in the form of 5-HTP; cited from earlier work.

Take `CN1CCCC1c1cccnc1` (stereo not shown) [nicotine]: the “side effects on use for treatment” value in series [1] was “without side effects such as tachyphylaxis”. Moreover, the “reduction of medication-induced dyskinesias” value in series [2] is listed as at most 50%.
`N[C@@H](Cc1c[nH]c2ccc(O)cc12)C(=O)O` [5-HTP, 5-Hydroxytryptophan]: in the series with migraine, the “aborting or significantly mitigating pain after onset of a migraine” value is “ineffective” and the “effect in migraine prevention” value was “only moderate effects”.

(Values after US20160340334A1, “METHOD FOR ISOLATION OF ALKALOIDS AND AMINO ACIDS, AND CO[…] ALKALOIDS AND AMINO ACIDS” (priority 2015, published 2016).)
